The values that follow are results of earlier work, collected in patent US10324098B2, “T2R taste receptors and genes encoding same” (SENOMYX, INC., priority 2000, dated 2019).

The target in series [1] is T1, mouse T2R5 (Mus musculus, UniProt Q9JKT4).
T1 sequence (Q9JKT4 1-300): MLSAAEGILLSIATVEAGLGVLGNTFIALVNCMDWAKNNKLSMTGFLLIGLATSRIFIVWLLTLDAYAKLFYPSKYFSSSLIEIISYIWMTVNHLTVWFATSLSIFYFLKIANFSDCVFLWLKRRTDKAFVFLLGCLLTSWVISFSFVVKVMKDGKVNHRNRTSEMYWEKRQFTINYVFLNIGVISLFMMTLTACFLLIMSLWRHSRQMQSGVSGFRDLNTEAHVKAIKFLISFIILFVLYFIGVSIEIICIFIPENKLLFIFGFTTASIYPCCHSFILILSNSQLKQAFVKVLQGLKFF

Series [2] deals with T1, mouse T2R5. Conditions: mouse T2R5, G Protein gustducin.
For another series, the target named is T2, human T2R4 (Homo sapiens, UniProt Q9NYW5).
T2 sequence (Q9NYW5 1-299): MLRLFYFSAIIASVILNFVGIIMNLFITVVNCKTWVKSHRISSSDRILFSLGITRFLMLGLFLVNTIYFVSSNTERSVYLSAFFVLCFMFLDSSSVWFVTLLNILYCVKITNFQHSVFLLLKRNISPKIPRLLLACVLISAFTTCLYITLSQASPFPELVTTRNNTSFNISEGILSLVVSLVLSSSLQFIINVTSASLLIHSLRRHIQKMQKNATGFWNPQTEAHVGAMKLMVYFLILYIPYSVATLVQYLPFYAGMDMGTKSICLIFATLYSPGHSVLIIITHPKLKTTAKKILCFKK

In another series the target is T3, mouse T2R8 (Mus musculus, UniProt Q9JKT3).
T3 sequence (Q9JKT3 1-297): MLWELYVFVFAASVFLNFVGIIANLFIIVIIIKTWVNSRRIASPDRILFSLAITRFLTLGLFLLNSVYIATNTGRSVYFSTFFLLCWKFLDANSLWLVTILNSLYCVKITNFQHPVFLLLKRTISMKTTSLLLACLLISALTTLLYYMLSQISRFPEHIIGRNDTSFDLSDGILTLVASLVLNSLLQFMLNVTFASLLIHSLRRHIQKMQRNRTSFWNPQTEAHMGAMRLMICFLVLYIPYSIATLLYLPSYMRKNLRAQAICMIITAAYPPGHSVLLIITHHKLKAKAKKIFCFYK

On to `C[C@@H]1C[C@@H]([C@H](O)CC2CC(=O)NC(=O)C2)C(=O)[C@@H](C)C1` [cycloheximide], for which, on mouse T2R5 [1], the “receptor receptive to tastant” value was “specifically receptive”. Further, the “ligand dependent coupling with gustducin” value at mouse T2R5 [2] is “strong cycloheximide dependent coupling with gustducin”.

In the case of `CC[N+](CC)(CC(=O)Nc1c(C)cccc1C)Cc1ccccc1` [denatonium], the “receptor responsive to tastant” value on human T2R4 and at mouse T2R8 was “specifically responsive” each time.

Take `CCCc1cc(=O)[nH]c(=S)[nH]1` [PROP, 6-n-propylthiouracil]: the “receptor responsive to tastant” value at human T2R4 and at mouse T2R8 was “specifically responsive” throughout.
